Measurements reported in patent US20060040957A1, “BICYCLIC PYRIMIDINE MATRIX METALLOPROTEINASE INHIBITORS” (priority 2001, published 2006).
Structures can show the parent of a compound that is named as a salt. Where two headings read alike, the source gives them in different places.

Tests used:
[1] = target: MMP-13CD (catalytic domain of collagenase 3) (Homo sapiens, UniProt P45452); experiment: Thiopeptolide substrate hydrolysis assay, MMP-13CD; type: biochemical; settings: thiopeptolide substrate, HEPES pH 7.0, 22° C.
Source text: (§1) Thiopeptolide substrates show virtually no decomposition or hydrolysis at or below neutral pH in the absence of a matrix metalloproteinase enzyme.

[2] = target: MMP-9FL (full length Gelatinase B) (Homo sapiens, UniProt P14780); experiment: Thiopeptolide substrate hydrolysis assay, MMP-9FL; type: biochemical; settings: HEPES pH 7.0, 22° C., read-out: IC50 (μM) Versus Certain MMPs: MMP-09 FL
Source text: (§2) The invention compounds of Formula I have been evaluated in standard assays for their ability to inhibit the catalytic activity of various MMP enzymes.
as §1
(§3) Several representative compounds have been evaluated for their ability to inhibit various matrix metalloproteinase enzymes.

[3] = target: MMP-14CD (catalytic domain of MMP-14) (Homo sapiens, UniProt P50281); experiment: Thiopeptolide substrate hydrolysis assay, MMP-14CD; type: biochemical; settings: HEPES pH 7.0, 22° C., read-out: IC50 (μM) Versus Certain MMPs: MMP-14 CD
Source text: as §2, §1, §3

[4] = target: T1, MMP-7FL (full length matrilysin) (Homo sapiens, UniProt P09237); experiment: Thiopeptolide substrate hydrolysis assay, MMP-7FL; type: biochemical; settings: HEPES pH 7.0, 22° C., read-out: IC50 (μM) Versus Certain MMPs: MMP-07 FL
T1 sequence (P09237 95-267): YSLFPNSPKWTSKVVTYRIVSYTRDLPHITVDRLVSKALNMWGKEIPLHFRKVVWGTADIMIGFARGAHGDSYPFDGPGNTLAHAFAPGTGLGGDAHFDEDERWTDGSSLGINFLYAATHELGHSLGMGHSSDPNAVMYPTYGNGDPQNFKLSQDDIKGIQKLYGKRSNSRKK
Source text: as §2, §1, §3

[5] = target: T2, MMP-2FL (full length Gelatinase A) (Homo sapiens, UniProt P08253); experiment: Thiopeptolide substrate hydrolysis assay, MMP-2FL; type: biochemical; settings: HEPES pH 7.0, 22° C., read-out: IC50 (μM) Versus Certain MMPs: MMP-02 FL
T2 sequence (P08253 110-660): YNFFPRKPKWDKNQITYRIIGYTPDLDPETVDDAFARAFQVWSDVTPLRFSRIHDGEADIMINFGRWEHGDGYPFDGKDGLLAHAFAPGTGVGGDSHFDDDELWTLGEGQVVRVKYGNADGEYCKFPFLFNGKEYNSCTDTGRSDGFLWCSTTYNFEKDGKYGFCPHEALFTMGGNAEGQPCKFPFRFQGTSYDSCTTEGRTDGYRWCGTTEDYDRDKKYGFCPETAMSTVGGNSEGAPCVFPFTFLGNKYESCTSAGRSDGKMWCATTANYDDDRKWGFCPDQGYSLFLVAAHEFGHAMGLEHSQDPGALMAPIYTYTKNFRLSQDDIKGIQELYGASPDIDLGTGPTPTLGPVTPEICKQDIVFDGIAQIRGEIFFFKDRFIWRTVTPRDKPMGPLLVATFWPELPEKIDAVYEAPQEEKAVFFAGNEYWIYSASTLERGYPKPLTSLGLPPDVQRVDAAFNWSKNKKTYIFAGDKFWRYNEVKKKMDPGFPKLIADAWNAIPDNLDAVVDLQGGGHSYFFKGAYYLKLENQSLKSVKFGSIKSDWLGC
Source text: as §2, §1, §3

[6] = read-out: IC50 (μM) Versus Certain MMPs: MMP-13 CD

Chain of MMP-9FL (full length Gelatinase B) (P14780 94-707, species assumed): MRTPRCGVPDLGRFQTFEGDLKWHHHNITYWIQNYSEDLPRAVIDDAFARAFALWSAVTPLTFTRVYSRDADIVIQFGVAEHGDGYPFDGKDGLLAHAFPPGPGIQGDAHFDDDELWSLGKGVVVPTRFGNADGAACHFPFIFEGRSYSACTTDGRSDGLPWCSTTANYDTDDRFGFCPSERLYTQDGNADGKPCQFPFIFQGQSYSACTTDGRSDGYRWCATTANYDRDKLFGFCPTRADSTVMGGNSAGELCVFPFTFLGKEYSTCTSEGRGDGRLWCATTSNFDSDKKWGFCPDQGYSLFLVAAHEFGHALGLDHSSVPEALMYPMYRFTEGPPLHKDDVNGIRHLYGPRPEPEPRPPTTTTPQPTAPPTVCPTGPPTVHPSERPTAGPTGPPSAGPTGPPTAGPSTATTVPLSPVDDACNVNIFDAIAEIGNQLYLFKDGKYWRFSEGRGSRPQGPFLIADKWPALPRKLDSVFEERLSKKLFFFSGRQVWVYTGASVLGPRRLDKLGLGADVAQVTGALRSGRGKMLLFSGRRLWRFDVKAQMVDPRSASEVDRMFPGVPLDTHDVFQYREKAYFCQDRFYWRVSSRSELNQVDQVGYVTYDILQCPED

Compound	melting point	IC50 [1, 6] [µM]	IC50 [2] [µM]	IC50 [3] [µM]	IC50 [4] [µM]	IC50 [5] [µM]	IC50 ([1]; IC50 (μM) Versus Certain MMPs: MMP-13 CD) [µM]
O=c1cc2sccn2c(=O)n1Cc1ccc(Cl)cc1 [6-(4-Chlorobenzyl)-thiazolo[3,2-c]pyrimidine-5,7-dione]	152 to 153.5 °C	> 100					
O=C(NCc1ccccc1)c1cn2c(=O)n(C(=O)c3ccccc3)c(=O)cc2s1 [Example 11, 6-Benzoyl-5,7-dioxo-6,7-dihydro-5H-thiazolo[3,2-c]pyrimidine-2-carboxylic acid benzylamide]	204 to 207 °C (dec.)		> 30	> 30	> 30	> 30	
O=C(NCc1ccccc1)c1cn2c(=O)n(Cc3ccc(Cl)cc3)c(=O)cc2s1 [Example 13, 6-(4-Chlorobenzyl)-5,7-dioxo-6,7-dihydro-5H-thiazolo[3,2-c]pyrimidine-2-carboxylic acid benzylamide]	> 220 °C		> 100	> 100	> 100	> 100	
COc1ccc(CNC(=O)c2cn3c(=O)n(Cc4ccccc4)c(=O)c(C)c3s2)cc1 [Example 17, 6-Benzyl-8-methyl-5,7-dioxo-6,7-dihydro-5H-thiazolo[3,2-c]pyrimidine-2-carboxylic acid 4-methoxybenzylamide]	160 to 162 °C		> 30	> 30	> 30	> 30	
Cc1c(=O)n(Cc2ccccc2)c(=O)n2cc(C(=O)NCc3ccc4[nH]ccc4c3)sc12 [Example 34, 6-Benzyl-8-methyl-5,7-dioxo-6,7-dihydro-5H-thiazolo[3,2-c]pyrimidine-2-carboxylic acid(1H-indol-5-ylmethyl)-amide]	189 to 191 °C						23
Cc1c(=O)[nH]c(=O)n2ccsc12 [Example 53, 8-Methyl-thiazolo[3,2-c]pyrimidine-5,7-dione]	> 230 °C	> 100					
COc1ccc(CNC(=O)c2cn3c(=O)n(Cc4ccc(C(=O)O)cc4)c(=O)c(C)c3s2)cc1 [Example 55, 4-[2-(4-Methoxy-benzylcarbamoyl)-8-methyl-5,7-dioxo-7H-thiazolo[3,2-c]pyrimidin-6-ylmethyl]-benzoic acid]	> 210 °C						
Cc1c(=O)n(Cc2ccc(C(=O)O)cc2)c(=O)n2cc(C(=O)NCc3ccc(F)cc3)sc12 [Example 58, 4-[2-(4-Fluoro-benzylcarbamoyl)-8-methyl-5,7-dioxo-7H-thiazolo[3,2-c]pyrimidin-6-ylmethyl]-benzoic acid]		0.00222	> 100	> 100	> 100	> 100	
COC(=O)c1ccc(Cn2c(=O)c(C)c3sc(C(=O)NCc4ccc(F)cc4)cn3c2=O)cc1Cl [Example 65, 2-Chloro-4-[2-(4-fluoro-benzylcarbamoyl)-8-methyl-5,7-dioxo-7H-thiazolo[3,2-c]pyrimidin-6-ylmethyl]-benzoic acid methyl ester]	176 to 178 °C		> 30	> 30	26	> 30	
Cc1c(=O)n(Cc2ccc(C#N)cc2)c(=O)n2cc(C(=O)NCc3ccncc3)sc12 [Example 85, 6-(4-Cyano-benzyl)-8-methyl-5,7-dioxo-6,7-dihydro-5H-thiazolo[3,2-c]pyrimidine-2-carboxylic acid(pyridin-4-ylmethyl)-amide hydrochloride]		0.0547	> 30	> 30	> 30	> 30	
COc1ccc(CNC(=O)c2cn3c(=O)n(Cc4ccc(Cl)c(Cl)c4)c(=O)cc3s2)cc1 [Example 102, 6-(3,4-Dichloro-benzyl)-5,7-dioxo-6,7-dihydro-5H-thiazolo[3,2-c]pyrimidine-2-carboxylic acid 4-methoxy-benzylamide]	206 to 207 °C						
Cc1c(=O)n(Cc2ccc(C(=O)OC(C)(C)C)cc2)c(=O)n2ccsc12 [Example 104, 4-(8-Methyl-5,7-dioxo-7H-thiazolo[3,2-c]pyrimidin-6-ylmethyl)-benzoic acid tert-butyl ester]	163 to 165 °C						

Results, then the compound that gave them:

melting point	IC50 [1, 6] [µM]	IC50 [2] [µM]	IC50 [3] [µM]	IC50 [4] [µM]	IC50 [5] [µM]	IC50 ([1]; IC50 (μM) Versus Certain MMPs: MMP-13 CD) [µM]	Compound
> 210 °C							O=C(NCc1ccccc1)c1cn2c(=O)n(Cc3ccncc3)c(=O)cc2s1 (as salt: hydrochloride) (hydrate or solvate) [Example 15, 6-(4-Pyridylmethyl)-5,7-dioxo-6,7-dihydro-5H-thiazolo[3,2-c]pyrimidine-2-carboxylic acid benzylamide hydrochloride]
218 to 219 °C		> 30	> 100	25	> 30		O=C(NCc1ccc(Cl)c(Cl)c1)c1cn2c(=O)n(Cc3ccc(Cl)cc3)c(=O)cc2s1 [Example 14, 6-(4-Chlorobenzyl)-5,7-dioxo-6,7-dihydro-5H-thiazolo[3,2-c]pyrimidine-2-carboxylic acid 3,4-dichlorobenzylamide]
176 to 178 °C		> 100	> 30	> 30	> 100		Cc1c(=O)n(Cc2ccccc2)c(=O)n2cc(C(=O)NCc3ccccc3)sc12 [Example 16, 6-Benzyl-8-methyl-5,7-dioxo-6,7-dihydro-5H-thiazolo[3,2-c]pyrimidine-2-carboxylic acid benzylamide]
180 to 182 °C		> 30	> 30	> 30	> 30		Cc1c(=O)n(Cc2ccccc2)c(=O)n2cc(C(=O)NCc3ccc(Cl)c(Cl)c3)sc12 [Example 18, 6-Benzyl-8-methyl-5,7-dioxo-6,7-dihydro-5H-thiazolo[3,2-c]pyrimidine-2-carboxylic acid 3,4-dichlorobenzylamide]
> 205 °C							Cc1c(=O)[nH]c(=O)n2cc(C(=O)O)sc12 [Example 54, 8-Methyl-5,7-dioxo-6,7-dihydro-5H-thiazolo[3,2-c]pyrimidine-2-carboxylic acid]
179 to 180 °C		> 100	> 100	> 100	> 100		COC(=O)c1ccc(Cn2c(=O)c(C)c3sc(C(=O)NCc4ccc(F)cc4)cn3c2=O)cc1C [Example 68, 4-[2-(4-Fluoro-benzylcarbamoyl)-8-methyl-5,7-dioxo-7H-thiazolo[3,2-c]pyrimidin-6-ylmethyl]-2-methyl-benzoic acid methyl ester]
209 to 211 °C		> 30	> 30	27	> 30		COC(=O)c1ccc(Cn2c(=O)c(C)c3sc(C(=O)NCc4cccc(F)c4)cn3c2=O)cc1 [Example 105, 4-[2-(3-Fluoro-benzylcarbamoyl)-8-methyl-5,7-dioxo-7H-thiazolo[3,2-c]pyrimidin-6-ylmethyl]-benzoic acid methyl ester]
> 215 °C		> 100	> 100	> 30	> 30		COC(=O)c1ccc(Cn2c(=O)c(C)c3sc(C(=O)NCc4ccc(F)cc4)cn3c2=O)cc1 [Example 106, 4-[2-(4-Fluoro-benzylcarbamoyl)-8-methyl-5,7-dioxo-7H-thiazolo[3,2-c]pyrimidin-6-ylmethyl]-benzoic acid methyl ester]
> 220 °C		> 30	> 30	> 30	> 30		Cc1c(=O)n(Cc2ccc(C#N)cc2)c(=O)n2cc(C(=O)NCc3ccc(F)cc3)sc12 [Example 107, 6-(4-Cyano-benzyl)-8-methyl-5,7-dioxo-6,7-dihydro-5H-thiazolo[3,2-c]pyrimidine-2-carboxylic acid 4-fluoro-benzylamide]
